Reference: paper PMC11649380 (Inorganic chemistry, 2022)
Like-named read-outs stand apart in the source and are kept apart here.

What was measured:
[1] = target: T1, mitochondrial calcium uniporter (MCU) (Homo sapiens, UniProt Q8NE86); settings: read-out: IC50 of MCU-mediated mCa2+ uptake inhibition; permeabilized HEK293T cells (1 × 10^7 cells/mL); ref [46]; cited from earlier work
T1 sequence (Q8NE86 51-351): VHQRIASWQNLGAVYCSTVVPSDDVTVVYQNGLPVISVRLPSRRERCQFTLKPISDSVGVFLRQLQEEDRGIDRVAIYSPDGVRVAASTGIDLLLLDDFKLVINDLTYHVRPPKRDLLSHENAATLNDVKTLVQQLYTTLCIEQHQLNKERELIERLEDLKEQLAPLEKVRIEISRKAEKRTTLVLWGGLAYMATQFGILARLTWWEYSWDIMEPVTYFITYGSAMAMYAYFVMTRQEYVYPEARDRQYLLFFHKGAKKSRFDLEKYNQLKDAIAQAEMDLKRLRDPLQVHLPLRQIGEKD
T1 sequence (Q9H4I9 48-107 partner limits assumed): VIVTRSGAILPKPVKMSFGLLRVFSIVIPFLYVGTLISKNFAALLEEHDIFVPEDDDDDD

[2] = Aquation kinetics of axial ligand dissociation by 1H NMR spectroscopy; format: physicochemical; settings: for k1 × 10^5 (first aquation rate constant) / k2 × 10^4 (second aquation rate constant): 37 °C, pH 7.4 MOPS-buffered solution, 400 μM complex, 1H NMR; for half-life: mops buffer, pH 7.4
[3] = target: T1, mitochondrial calcium uniporter (MCU); assay: Mitochondrial Ca2+ uptake inhibition in digitonin-permeabilized HEK293T cells; format: cell-based
HeLa cells = assay: Cellular uptake by GFAAS in HeLa cells; format: cell-based; settings: 50 μM for 2 h
[4] = target: T2, organic cation transporter 3 (OCT3) (Homo sapiens, UniProt O75751); assay: Role of OCT3 in cellular uptake; format: cell-based; settings: HeLa, 50 μM complex, 1 μM decynium-22, 3 h
T2 sequence (O75751 1-556): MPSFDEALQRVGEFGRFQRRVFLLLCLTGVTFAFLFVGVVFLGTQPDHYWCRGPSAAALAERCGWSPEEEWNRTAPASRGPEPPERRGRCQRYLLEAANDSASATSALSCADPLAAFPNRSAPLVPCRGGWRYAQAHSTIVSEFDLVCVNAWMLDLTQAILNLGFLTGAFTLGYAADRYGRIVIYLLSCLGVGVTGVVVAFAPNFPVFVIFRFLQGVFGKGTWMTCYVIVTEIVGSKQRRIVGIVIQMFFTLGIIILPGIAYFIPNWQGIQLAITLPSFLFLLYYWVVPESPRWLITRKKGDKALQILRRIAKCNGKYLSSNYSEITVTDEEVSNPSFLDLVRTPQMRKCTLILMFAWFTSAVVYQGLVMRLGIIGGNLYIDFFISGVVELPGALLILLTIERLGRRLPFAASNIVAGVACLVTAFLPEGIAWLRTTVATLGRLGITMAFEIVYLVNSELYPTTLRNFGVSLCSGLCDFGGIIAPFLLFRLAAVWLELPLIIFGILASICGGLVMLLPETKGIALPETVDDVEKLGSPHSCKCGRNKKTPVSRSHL

[5] = ref [51], cited from earlier work
HEK293T cells = assay: Cellular uptake by GFAAS in HEK293T cells; format: cell-based; settings: 50 μM for 2 h

| Structure (SMILES) | k1 × 10^5 (first aquation rate constant) [2] | k2 × 10^4 (second aquation rate constant) [2] | half-life [2] | also measured |
| --- | --- | --- | --- | --- |
| N.N.N.N.N.N.N.N.[Cl][Ru+3].[NH]=[Ru][Cl] [Ru265, [ClRu(NH3)4(μ-N)Ru(NH3)4Cl]Cl3] |  |  |  | IC50 [1]: 8.6 ± 2.2 nM |
| CCCC(=O)[O-].CCCC(=O)[O-].N.N.N.N.N.N.N.N.[N-3].[Ru+4].[Ru+4] [Complex 4, [(CH3(CH2)2CO2)Ru(NH3)4(μ-N)Ru(NH3)4(O2C(CH2)2CH3)](OSO2CF3)3] | 3.2 ± 0.1 s^−1 | 2.8 ± 0.2 s^−1 | 5.9 ± 0.2 h | IC50 [3]: 18.7 ± 0.1 nM |
| CC(=O)[O-].CC(=O)[O-].N.N.N.N.N.N.N.N.[N-3].[Ru+4].[Ru+4] [Complex 2, [(CH3CO2)Ru(NH3)4(μ-N)Ru(NH3)4(O2CCH3)](NO3)3] | 2.0 ± 0.5 s^−1 | 3.0 ± 1.2 s^−1 | 9.9 ± 2.4 h |  |
| N.N.N.N.N.N.N.N.[Cl][Ru+3].[N-]=[Ru][Cl] [Ru265, [ClRu(NH3)4(μ-N)Ru(NH3)4Cl]Cl3] |  |  |  | cellular uptake (intracellular Ru accumulation) (HeLa cells): taken up by both cell lines to a similar extent; cellular uptake in the presence of the OCT3 inhibitor decynium-22 [4]: diminished in the presence of the OCT3 inhibitor; t1/2 (1) (half-life of first aquation step) ([5]; 37 °C, UV-vis spectroscopy): 2.28 min; k1 × 10^5 (first aquation rate constant) ([5]; 37 °C, determined using UV-vis spectroscopy, first aquation step only): 49.2 s^−1; half-life of aquation of axial chloride ligands ([5]; same conditions (pH 7.4, 37 °C)): approximately 2 min; mCa2+ uptake at 1 μM ([3]; freshly prepared 1 μM solutions, permeabilized HEK293T cells): complete abrogation of mCa^2+ uptake; cellular uptake (intracellular Ru accumulation) (HEK293T cells): taken up by both cell lines to a similar extent |
| CCC(=O)[O-].CCC(=O)[O-].N.N.N.N.N.N.N.N.[N-3].[Ru+4].[Ru+4] [Complex 3, [(CH3CH2CO2)Ru(NH3)4(μ-N)Ru(NH3)4(O2CCH2CH3)](NO3)3] | 2.8 ± 0.1 s^−1 | 3.3 ± 0.5 s^−1 | 6.9 ± 0.2 h |  |
| N.N.N.N.N.N.N.N.O=C[O-].O=C[O-].[N-3].[Ru+4].[Ru+4] [Complex 1, [(HCO2)Ru(NH3)4(μ-N)Ru(NH3)4(O2CH)](NO3)3] | 5.9 ± 0.2 s^−1 | 3.6 ± 0.3 s^−1 | 3.3 ± 0.1 h |  |
